For the first test, the target named is T1, human muscarinic M3 receptor (Homo sapiens, UniProt P20309).
T1 construct: expressed in transfected cells
T1 sequence (P20309 whole entry): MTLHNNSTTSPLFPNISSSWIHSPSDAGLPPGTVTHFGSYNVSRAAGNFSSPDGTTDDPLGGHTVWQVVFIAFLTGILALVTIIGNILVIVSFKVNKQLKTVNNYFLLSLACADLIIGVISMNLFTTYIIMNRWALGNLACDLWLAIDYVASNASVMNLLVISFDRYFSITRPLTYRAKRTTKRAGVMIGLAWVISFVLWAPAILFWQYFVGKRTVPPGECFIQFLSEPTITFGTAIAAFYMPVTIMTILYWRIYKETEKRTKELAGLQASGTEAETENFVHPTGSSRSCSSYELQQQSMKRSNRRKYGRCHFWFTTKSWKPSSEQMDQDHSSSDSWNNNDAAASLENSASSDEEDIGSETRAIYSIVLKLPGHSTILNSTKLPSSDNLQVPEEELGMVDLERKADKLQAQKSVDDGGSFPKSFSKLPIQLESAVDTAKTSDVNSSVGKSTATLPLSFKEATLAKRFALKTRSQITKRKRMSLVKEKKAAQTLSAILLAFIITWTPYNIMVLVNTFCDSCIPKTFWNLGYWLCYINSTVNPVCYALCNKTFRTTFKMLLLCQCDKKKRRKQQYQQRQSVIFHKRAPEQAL
Put plainly: hM3 β-Lac potency assay (cell based β-lactamase). Particulars: CHO cells expressing human M3 receptor, NFAT β-lactamase reporter; […]; IC50 converted to Ki by Cheng-Prusoff; read-out: Cell based β-lactamase M3 Ki. The protocol: M3 potency was determined in CHO-K1 cells transfected with the NFAT-Betalactamase gene. CHO (Chinese Hamster Ovary) cells recombinantly expressing the human muscarinic M3 receptor were transfected with the NFAT_β-Lac_Zeo plasmid.
The cells were re-suspended at 2×10^5 cells/ml in growth medium (composition as described above). […] Inhibition curves were plotted and IC50 values generated using a 4-parameter sigmoid fit and converted to Ki values using the Cheng-Prusoff correction and the KD value for carbamyl choline in the assay.
As for `COc1cccc(OC2CN(C(C)(C)CCC(C#N)(c3ccccc3)c3ccccc3)C2)c1` [Example 99, 5-[3-(3-Methoxyphenoxy)azetidin-1-yl]-5-methyl-2,2-diphenylhexanenitrile], the Ki (in general, a dissociation constant, usually derived from enzyme kinetics or from competition with a known ligand) was 65.7 nM.

Still in this test, the particulars now being: CHO cells expressing human M3 receptor, NFAT β-lactamase reporter; inhibition of 80 nM carbamyl choline signal, 4 h; IC50 converted to Ki by Cheng-Prusoff; read-out: Cell based β-lactamase M3 Ki.
With `CC(C)(CCC(C(N)=O)(c1ccccc1)c1ccccc1)N1CC[C@H](Oc2cc(O)c(Cl)cc2Cl)C1` [Example 31, 5-[(3S)-3-(2,4-Dichloro-5-Hydroxy-phenoxy)-pyrrolidin-1-yl]-5-methyl-2,2-diphenyl-hexanoic acid amide], the Ki came to 45.1 nM.

`Cc1c(O)cccc1OC1CCN(C(C)(C)CCC(C(N)=O)(c2ccccc2)c2ccccc2)CC1` [Example 96, 5-[4-(3-hydroxy-2-methylphenoxy)piperidin-1-yl]-5-methyl-2,2-diphenylhexanamide]: the Ki is 6.51 nM.

Consider `CC(C)(CCC(C(N)=O)(c1ccccc1)c1ccccc1)N1CC[C@H](Oc2cc(O)ccc2Cl)C1` [Example 40, 5-[(3S)-3-(2-Chloro-5-Hydroxy-phenoxy)-pyrrolidin-1-yl]-5-methyl-2,2-diphenyl-hexanoic acid amide], for which the Ki was determined as 6.09 nM. Still for that read-out and setting: then `CC(C)(CCC(C(N)=O)(c1ccccc1)c1ccccc1)N1CC[C@H](Oc2ccc(C(F)(F)F)cc2)C1` [Example 24, 5-[(3S)-3-(4-trifluoromethyl-phenoxy)pyrrolidin-1-yl]-5-methyl-2,2-diphenylhexanamide], with 20.7 nM. As to `CC(C)(CCC(C(N)=O)(c1ccccc1)c1ccccc1)N1CC(OCc2ccccc2)C1` [Example 102, 5-[3-(Benzyloxy)azetidin-1-yl]-5-methyl-2,2-diphenylhexanamide], the Ki stood at 0.0636 nM. On the same count and under the same terms, to `COc1cc(OC2CN(C(C)(C)CCC(C(N)=O)(c3ccccc3)c3ccccc3)C2)ccc1Cl` [Example 113, 5-[3-(4-Chloro-3-methoxy-phenoxy)-azetidin-1-yl]-5-methyl-2,2-diphenylhexanamide] belongs 7.22 nM; to `CC(C)(CCC(C(N)=O)(c1ccccc1)c1ccccc1)N1CC(OCc2ccc(Cl)cc2O)C1` [Example 147, 5-[3-(4-Chloro-2-hydroxy-benzyloxy)-azetidin-1-yl]-5-methyl-2,2-diphenyl-hexanoic acid amide], 33.4 nM; to `CC(C)(CCC(C(N)=O)(c1ccccc1)c1ccccc1)N1CC(Oc2ccccc2)C1` [Example 104, 5-Methyl-5-(3-phenoxyazetidin-1-yl)-2,2-diphenylhexanamide], 0.0488 nM. As to `NC(=O)C(CCC1(N2CC(Oc3ccc(Cl)c(O)c3)C2)CCCC1)(c1ccccc1)c1ccccc1` [Example 139, 4-{1-[3-(4-Chloro-3-hydroxy-phenoxy)-azetidin-1-yl]-cyclopentyl}-2,2-diphenyl-butyramide], the Ki amounted to 5.39 nM. Same read-out and setting: to `COc1cc(O[C@H]2CCN(C(C)(C)CCC(C(N)=O)(c3ccccc3)c3ccccc3)C2)ccc1F` [Example 50, 5-[(3S)-3-(4-Fluoro-3-Methoxy-phenoxy)-pyrrolidin-1-yl]-5-methyl-2,2-diphenyl-hexanoic acid amide] belongs 3.18 nM; to `COc1ccc(OC2CN(C(C)(C)CCC(C#N)(c3ccccc3)c3ccccc3)C2)cc1` [Example 105, 5-[3-(4-Methoxyphenoxy)azetidin-1-yl]-5-methyl-2,2-diphenylhexanenitrile], 1.94 nM. Turning to `CC(C)(CCC(C(N)=O)(c1ccccc1)c1ccccc1)N1CC[C@H](Oc2ccc(Cl)c(O)c2)C1` [Example 39, 5-[(3S)-3-(4-Chloro-3-Hydroxy-phenoxy)-pyrrolidin-1-yl]-5-methyl-2,2-diphenylhexanoic acid amide], the Ki worked out at 1.97 nM. Same read-out and setting: then `COc1cc(O[C@@H]2CCN(C(C)(C)CCC(C(N)=O)(c3ccccc3)c3ccccc3)C2)ccc1Cl` [Example 81, 5-[(3R)-3-(3-methoxy-4-chloro-Phenoxy)-pyrrolidin-1-yl]-5-methyl-2,2-diphenylhexanamide], with 35.4 nM; and `COc1c(Cl)cccc1O[C@@H]1CCN(C(C)(C)CCC(C(N)=O)(c2ccccc2)c2ccccc2)C1` [Example 42, 5-[(3R)-3-(3-Chloro-2-Methoxy-phenoxy)-pyrrolidin-1-yl]-5-methyl-2,2-diphenyl-hexanoic acid amide], with 22.1 nM. Same read-out and setting: then `CC(C)(CCC(C(N)=O)(c1ccccc1)c1ccccc1)N1CC[C@@H](Oc2cccc(O)c2Cl)C1` [Example 78, 5-[(3R)-3-(2-Chloro-3-hydroxy-phenoxy)-pyrrolidin-1-yl]-5-methyl-2,2-diphenylhexanamide], with 0.917 nM. Still for that read-out and setting: to `CC(C)(CCC(C#N)(c1ccccc1)c1ccccc1)N1CCC(Oc2ccccc2)CC1` [Example 86, 5-Methyl-5-(4-phenoxypiperidin-1-yl)-2,2-diphenylhexanenitrile] belongs 1.26 nM; to `CC(C)(CCC(C(N)=O)(c1ccccc1)c1ccccc1)N1CC(OCc2ccc(O)c(Cl)c2)C1` [Example 146, 5-[3-(3-Chloro-4-hydroxy-benzyloxy)-azetidin-1-yl]-5-methyl-2,2-diphenyl-hexanoic acid amide], 0.247 nM; to `CC(C)(CCC(C(N)=O)(c1ccccc1)c1ccccc1)N1CC(Oc2cc(O)cc(Br)c2)C1` [Example 142, 5-[3-(3-Bromo-5-hydroxy-phenoxy)-azetidin-1-yl]-5-methyl-2,2-diphenyl-hexanoic acid amide], 8.05 nM. Turning to `CC(C)(CCC(C(N)=O)(c1ccccc1)c1ccccc1)N1CC(Oc2cc(O)ccc2Cl)C1` [Example 118, 5-[3-(2-Chloro-5-hydroxy-phenoxy)-azetidin-1-yl]-5-methyl-2,2-diphenyl-hexanoic acid amide], the Ki amounted to 40.7 nM. Still for that read-out and setting: to `COc1cccc(O[C@@H]2CCN(C(C)(C)CCC(C(N)=O)(c3ccccc3)c3ccccc3)C2)c1` [Example 12, 5-[(3R)-3-(3-Methoxyphenoxy)pyrrolidin-1-yl]-5-methyl-2,2-diphenylhexanamide] belongs 0.3 nM.

As to `COc1cccc(O[C@H]2CCN(C(C)(C)CCC(C(N)=O)(c3ccccc3)c3ccccc3)C2)c1F` [Example 51, 5-[(3S)-3-(2-Fluoro-3-Methoxy-phenoxy)-pyrrolidin-1-yl]-5-methyl-2,2-diphenyl-hexanoic acid amide], the Ki amounted to 0.623 nM. Still for that read-out and setting: then `CC(C)(CCC(C(N)=O)(c1ccccc1)c1ccccc1)N1CC[C@@H](Oc2cccc(Cl)c2O)C1` [Example 43, 5-[(3R)-3-(3-Chloro-2-Hydroxy-phenoxy)-pyrrolidin-1-yl]-5-methyl-2,2-diphenyl-hexanoic acid amide], with 5.35 nM; and `Cc1cc(O)cc(O[C@H]2CCN(C(C)(C)CCC(C(N)=O)(c3ccccc3)c3ccccc3)C2)c1` [Example 29, 5-[(3S)-3-(3-Hydroxy-5-methyl-phenoxy)-pyrrolidin-1-yl]-5-methyl-2,2-diphenyl-hexanoic acid amide], with 2.26 nM. Still for that read-out and setting: then `CC(C)(CCC(C(N)=O)(c1ccccc1)c1ccccc1)N1CC[C@@H](Oc2ccc(O)c(Cl)c2)C1` [Example 72, 5-[(3R)-3-(3-chloro-4-hydroxyphenoxy)pyrrolidin-1-yl]-5-methyl-2,2-diphenylhexanamide], with 1.23 nM; and `CC(C)(CCC(C(N)=O)(c1ccccc1)c1ccccc1)N1CC(Oc2cc(O)cc(O)c2)C1` [Example 149, 5-[3-(3,5-Dihydroxy-phenoxy)-azetidin-1-yl]-5-methyl-2,2-diphenyl-hexanoic acid amide], with 0.714 nM; and `CC(C)(CCC(C(N)=O)(c1ccccc1)c1ccccc1)N1CC[C@H](OCc2cccc(-c3cccc(O)c3)c2)C1` [Example 61, 5-{(3S)-3-[(3′-Hydroxybiphenyl-3-yl)methoxy]pyrrolidin-1-yl}-5-methyl-2,2-diphenylhexanamide], with 9.85 nM. Still for that read-out and setting: then `CC(C)(CCC(C(N)=O)(c1ccccc1)c1ccccc1)N1CC[C@H](Oc2ccc(F)c(O)c2)C1` [Example 52, 5-[(3S)-3-(4-Fluoro-3-Hydroxy-phenoxy)-pyrrolidin-1-yl]-5-methyl-2,2-diphenyl-hexanoic acid amide], with 2.16 nM; and `COc1cccc(O[C@H]2CCN(C(C)(C)CCC(C(N)=O)(c3ccccc3)c3ccccc3)C2)c1Cl` [Example 37, 5-[(3S)-3-(2-Chloro-3-Methoxy-phenoxy)-pyrrolidin-1-yl]-5-methyl-2,2-diphenyl-hexanoic acid amide], with 5.01 nM; and `CC(C)(CCC(C(N)=O)(c1ccccc1)c1ccccc1)N1CC(OCc2ccc(O)cc2)C1` [Example 152, 5-[3-(4-Hydroxy-benzyloxy)-azetidin-1-yl]-5-methyl-2,2-diphenyl-hexanoic acid amide], with 0.229 nM. Take `CC(C)(CCC(C(N)=O)(c1ccccc1)c1ccccc1)N1CC(Oc2cc(Cl)c(Cl)cc2O)C1` [Example 111, 5-{3-(4,5-Dichloro-2-hydroxy-phenoxy)-azetidin-1-yl}-5-methyl-2,2-diphenylhexanamide]: the Ki was 76.9 nM. With `CC(C)(CCC(C(N)=O)(c1ccccc1)c1ccccc1)N1CC(Oc2cc(O)cc(F)c2)C1` [Example 121, 5-{3-(3-Fluoro-5-hydroxy-phenoxy)-azetidin-1-yl}-5-methyl-2,2-diphenylhexanamide], the Ki was 0.604 nM. As to `CC(C)(CCC(C(N)=O)(c1ccccc1)c1ccccc1)N1CC(Oc2ccc(Cl)c(O)c2)C1` [Example 114, 5-[3-(4-Chloro-3-hydroxy-phenoxy)-azetidin-1-yl]-5-methyl-2,2-diphenylhexanamide], the Ki was determined as 1.94 nM.

For `CC(C)(CCC(C(N)=O)(c1ccccc1)c1ccccc1)N1CC(Oc2ccc(O)cc2)C1` [Example 107, 5-[3-(4-hydroxyphenoxy)azetidin-1-yl]-5-methyl-2,2-diphenylhexanamide], the Ki came to 0.132 nM.
